This is an account of results in patent US6723716B1, “7-acylamino-3-heteroarylthio-3-cephem carboxylic acid antibiotics and prodrugs thereof” (Essential Therapeutics, Inc., priority 1999, dated 2004).

Converted amounts (≈) assume the structure as drawn.

In data set [1] the test system is E. coli ATCC25992. Kind of data set: Broth microdilution MIC (NCCLS). Conditions: Escherichia coli. In kind it is cell-based. As to the method: (§1) Compounds were evaluated for antimicrobial activity against a panel of bacterial strains using a broth microdilution assay performed as recommended by the NCCLS (1). The minimum inhibitory concentration (MIC) was defined as the lowest concentration of drug which prevented the growth of the bacteria.
(§2) For this primary panel, the assay was performed in Mueller-Hinton Broth (MHB) with a final bacterial inoculum of 5×10^5 CFU/mL (from an early-log phase culture) and a final volume of 100 μL. Control drugs, including imipenem, vancomycin, Penicillin G, dicloxacillin (vs. MSSA ATCC29213 only), and new compounds were prepared at a concentration equivalent to 2-fold the desired final concentration. Dilution of compounds were prepared directly in the plates by serial 2-fold dilution using a multichannel pipette. Positive and negative growth control were included in each plate.
(§3) The bacterial inocula were prepared as follows. For each strain one isolated colony was used to inoculate a volume of 8 mL of Mueller-Hinton broth and these cultures were incubated overnight (20 h) at 35° C. in a shaking incubator. At the exception of Enterococcus strains, culture were then diluted 1:10 and allowed to grow for an additional one hour at 35° C. in a shaking incubator. The inocula were prepared by diluting the early log-phase (1 h) cultures 1:1000 with fresh Mueller-Hinton broth. E. faecium and E. faecalis were prepared by diluting overnight cultures 1:333 and 1:666, respectively, with fresh Mueller-Hinton broth. A volume of 50 μL of the inocula was added to each well. […] The exact inocula were determined by applying 10 μL of 10-fold serial dilution of the bacterial suspensions on TSA. After overnight incubation at 35° C., colony forming units were manually counted.
(§4) Microtiter plates were incubated during 24 h at 35° C. and were read using a microtiterplate reader (Molecular Devices) at 650 nm as well as by visual observation using a microtiterplate reading mirror.
On the technique in general: In broth dilution the organism is exposed to a series of concentrations in liquid medium.

Data set [2] deals with E. faecalis ATCC 29212. Kind of data set: Broth microdilution MIC (NCCLS). Conditions: Enterococcus faecalis, ATCC29212. In kind it is cell-based. As to the method: as §1, §2, §3, §4
Data set [3] deals with E. faecalis VanB (Van^R). Kind of data set: Broth microdilution MIC (NCCLS). In kind it is cell-based. The following applies: Enterococcus faecalis. On the procedure: as §1, §2, §3, §4
In data set [4] the test system is E. faecium A491 (Amp^R). As to the kind of experiment: Broth microdilution MIC (NCCLS). The following applies: Enterococcus faecium. The data set is classed as cell-based. As to the method: as §1, §2, §3, §4
The subject of data set [5] is E. faecium ATCC 35667. As to the kind of experiment: Broth microdilution MIC (NCCLS). In kind it is cell-based. The following applies: Enterococcus faecium, ATCC35667. On the procedure: as §1, §2, §3, §4
In data set [6] the test system is E. faecium VanA (Van^R). As to the kind of experiment: Broth microdilution MIC (NCCLS). In kind it is cell-based. Conditions: Enterococcus faecium. As to the method: as §1, §2, §3, §4
Data set [7] has as its system P. aeruginosa ATCC 27853. As to the kind of experiment: Broth microdilution MIC (NCCLS). The data set is classed as cell-based. Conditions: Pseudomonas aeruginosa, ATCC27853. On the procedure: as §1, §2, §3, §4
Data set [8] has as its system S. aureus 76 (Meth^R)(lac^+). As to the kind of experiment: Broth microdilution MIC (NCCLS). The data set is classed as cell-based. The following applies: Staphylococcus aureus. On the procedure:
as §1, §2, §3, §4

Data set [9] concerns S. aureus ATCC 13709 (Meth^S). Kind of data set: Broth microdilution MIC (NCCLS). The data set is classed as cell-based. Conditions: Staphylococcus aureus, ATCC13709, S. aureus ATCC 13709 (Meth^S); read-out: MIC. As to the method:
as §1, §2, §3, §4

Data set [10] has as its system S. aureus ATCC 29213. As to the kind of experiment: Broth microdilution MIC (NCCLS). The data set is classed as cell-based. The following applies: Staphylococcus aureus, ATCC29213; S. aureus ATCC 29213; Mueller-Hinton broth, 24 h at 35° C.; read-out: MIC. On the procedure:
as §1, §2, §3, §4

For data set [11], the system named is S. aureus ATCC 33593 (Meth^R). Kind of data set: Broth microdilution MIC (NCCLS). The data set is classed as cell-based. Conditions: Staphylococcus aureus, ATCC33593. On the procedure:
as §1, §2, §3, §4

Data set [12] has as its system S. aureus Col (Meth^R)(lac^−). Kind of data set: Broth microdilution MIC (NCCLS). In kind it is cell-based. Conditions: Staphylococcus aureus. As to the method: as §1, §2, §3, §4
Data set [13] concerns S. aureus Col8A (Meth^S)(lac^−). As to the kind of experiment: Broth microdilution MIC (NCCLS). The following applies: Staphylococcus aureus. In kind it is cell-based. As to the method: as §1, §2, §3, §4
Data set [14] concerns S. aureus PC1 (Meth^S)(lac^+). Kind of data set: Broth microdilution MIC (NCCLS). The data set is classed as cell-based. The following applies: Staphylococcus aureus. As to the method:
as §1, §2, §3, §4

The test system of data set [15] is S. aureus Spain #356 (Meth^R). Kind of data set: Broth microdilution MIC (NCCLS). Conditions: Staphylococcus aureus, 24 h. In kind it is cell-based. As to the method:
as §1, §2, §3, §4

Data set [16] has as its system S. haemolyticus 05 (Meth^R). Kind of data set: Broth microdilution MIC (NCCLS). The data set is classed as cell-based. The following applies: Staphylococcus haemolyticus. As to the method:
as §1, §2, §3, §4

Data set [17] deals with S. aureus ATCC29213. Kind of data set: Human serum binding effect: MIC with and without human serum. In kind it is cell-based, Staphylococcus aureus. Conditions: 1:1 human serum:MHB. The method in brief:
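Serum binding was estimated as the ratio of S. aureus ATCC29213 MIC in 1:1 human serum:Mueller-Hinton broth to MIC without serum. Compounds were serially 2-fold diluted, and wells received an early-log-phase inoculum at 1×10^6 CFU/mL final. Inoculum size was checked by colony counts on TSA after overnight incubation at 35 °C.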

By MIC is commonly meant the smallest concentration in the dilution series that meets the test's criterion for growth inhibition. On to `NCCSCc1ccncc1SC1=C(C(=O)O)N2C(=O)[C@@H](NC(=O)/C(=N\O)c3cccc(N)n3)[C@H]2SC1` [Cmpd 28, (7R)-7-[(Z)-2-(2-aminopyrid-6-yl)-2-(hydroxyimino)acetamido]-3-[4-(2-aminoethylthiomethyl)pyrid-3-ylthio]-3-cephem-4-carboxylic acid], for which the MIC in [1] was 32 µg/mL (≈ 57 µM); in data set [2] it was 0.5 µg/mL (≈ 0.89 µM); in data set [3], 2 µg/mL (≈ 3.56 µM); in data set [4], greater than 32 µg/mL; in data set [5], 4 µg/mL (≈ 7.12 µM); in data set [6], 8 µg/mL (≈ 14.2 µM). The MIC in data set [7] was greater than 32 µg/mL; in [8] it was 8 µg/mL (≈ 14.2 µM); in data set [9], 0.13 µg/mL (≈ 0.231 µM); in [10] it was 0.5 µg/mL (≈ 0.89 µM); in [11] it was 8 µg/mL (≈ 14.2 µM); in data set [12] it was 8 µg/mL (≈ 14.2 µM). Besides, the MIC in [13] turned out to be 0.25 µg/mL (≈ 0.445 µM); in data set [14], 0.5 µg/mL (≈ 0.89 µM); in [15], 8 µg/mL (≈ 14.2 µM); in data set [16], 16 µg/mL (≈ 28.5 µM).
For the molecule `NCCSCc1nsc(SC2=C(C(=O)O)N3C(=O)[C@@H](NC(=O)/C(=N\O)c4nc(N)sc4Cl)[C@H]3SC2)n1` [Cmpd 12, (7R)-7-[(Z)-2-(2-amino-5-chlorothiazol-4-yl)-2-(hydroxyimino)acetamido]-3-[3-(2-aminoethylthiomethyl)-1,2,4-thiadiazol-5-ylthio]-3-cephem-4-carboxylic acid], the MIC in data set [1] was 4 µg/mL (≈ 6.57 µM); in data set [3], 0.13 µg/mL (≈ 0.213 µM); in data set [4] it was 4 µg/mL (≈ 6.57 µM); in [5] it was 0.5 µg/mL (≈ 0.821 µM); in [6], 1 µg/mL (≈ 1.64 µM); in [7], greater than 32 µg/mL. The MIC in data set [8] worked out at 1 µg/mL (≈ 1.64 µM); in data set [9], 0.25 µg/mL (≈ 0.41 µM); in data set [10], 0.5 µg/mL (≈ 0.821 µM); in data set [11], 1 µg/mL (≈ 1.64 µM); in [12], 1 µg/mL (≈ 1.64 µM); in [13], 0.5 µg/mL (≈ 0.821 µM). In addition, the MIC amounted to 0.13 µg/mL (≈ 0.213 µM) in [14], 1 µg/mL (≈ 1.64 µM) in [15] and 2 µg/mL (≈ 3.28 µM) in data set [16]. In addition, the “Human serum binding effect (ratio of MIC value determined with and without human serum added)” value in data set [17] is 256.
As for `NCCSCc1nnc(SC2=C(C(=O)O)N3C(=O)[C@@H](NC(=O)/C(=N\O)c4nc(N)sc4Cl)[C@H]3SC2)s1` [Cmpd 10, (7R)-7-[(Z)-2-(2-amino-5-chlorothiazol-4-yl)-2-(hydroxyimino)acetamido]-3-(2-aminoethylthiomethyl-1,3,4-thiadiazol-5-ylthio)-3-cephem-4-carboxylic acid], the MIC is 1 µg/mL (≈ 1.64 µM) in [1]; 0.13 µg/mL (≈ 0.213 µM) in data set [2]; 0.25 µg/mL (≈ 0.41 µM) in [3]; 8 µg/mL (≈ 13.1 µM) in data set [4]; 1 µg/mL (≈ 1.64 µM) in data set [5]; 2 µg/mL (≈ 3.28 µM) in [6]. Besides, the MIC came to 16 µg/mL (≈ 26.3 µM) in data set [7]; 2 µg/mL (≈ 3.28 µM) in data set [8]; 0.13 µg/mL (≈ 0.213 µM) in [9]; 0.5 µg/mL (≈ 0.821 µM) in data set [10]; 2 µg/mL (≈ 3.28 µM) in [11]; 2 µg/mL (≈ 3.28 µM) in [12]. For the same molecule, the MIC in [13] is 0.25 µg/mL (≈ 0.41 µM); in data set [14], 0.5 µg/mL (≈ 0.821 µM); in [15] it was 4 µg/mL (≈ 6.57 µM); in data set [16] it was 4 µg/mL (≈ 6.57 µM). The “Human serum binding effect (ratio of MIC value determined with and without human serum added)” value in [17] is listed as 1.
Take `NCCNc1nc(CSCCN)c(SC2=C(C(=O)O)N3C(=O)[C@@H](NC(=O)/C(=N\O)c4nc(N)sc4Cl)[C@H]3SC2)s1` [Cmpd 16, (7R)-7-[(Z)-2-(2-amino-5-chlorothiazol-4-yl)-2-(hydroxyimino)acetamido]-3-[4-(2-aminoethylthiomethyl)-2-aminoethylamino-1,3-thiazol-5-ylthio]-3-cephem-4-carboxylic acid]: the MIC was 4 µg/mL (≈ 6 µM) in [1]; 0.06 µg/mL (≈ 0.0901 µM) in [2]; 0.06 µg/mL (≈ 0.0901 µM) in data set [3]; 16 µg/mL (≈ 24 µM) in data set [4]; 0.5 µg/mL (≈ 0.75 µM) in data set [5]; 4 µg/mL (≈ 6 µM) in [6]. Moreover, the MIC in data set [7] is 1 µg/mL (≈ 1.5 µM); in data set [8], 1 µg/mL (≈ 1.5 µM); in data set [9], 0.13 µg/mL (≈ 0.195 µM); in [10], 0.13 µg/mL (≈ 0.195 µM); in data set [11], 1 µg/mL (≈ 1.5 µM); in [12] it was 1 µg/mL (≈ 1.5 µM). Moreover, the MIC in [13] was determined as 0.25 µg/mL (≈ 0.375 µM); in data set [14] it was 0.13 µg/mL (≈ 0.195 µM); in data set [15], 1 µg/mL (≈ 1.5 µM); in [16], 1 µg/mL (≈ 1.5 µM). In addition, the “Human serum binding effect (ratio of MIC value determined with and without human serum added)” value in data set [17] was 1.
